Laboratory results taken from article PMC6263544, “Second-generation pterocarpanquinones: synthesis and antileishmanial activity” (The Journal of Venomous Animals and Toxins Including …, 2018).

Tested on: not listed separately
Experiment: Macrophage toxicity test (resazurin)
Format: cell-based, Swiss mice
Details: mouse; peritoneal macrophages of Swiss mice, 72 h, resazurin, Mean ± SEM; read-out: Murine Macrophage CC50
Experimental: (§1) To evaluate the toxicity of pterocarpanquinones 2a-f, peritoneal macrophages of Swiss mice (2 × 10^6/mL) were incubated with pterocarpanquinones (1.25–100 μM) for 72 h at 37 °C/5% CO2. Viability was evaluated with resazurin assay as described for the antipromastigote test. The 50% cytotoxicity concentration (CC50) was determined by nonlinear regression analysis in the software GraphPad Prism 5.

Q: For `O=C1C2=C(C(=O)c3ccccc31)[C@H]1COc3ccc(Cl)cc3[C@H]1O2` [LQB 236 (2c)], which CC50 at 72 h is on record?
A: Its CC50 at 72 h is 43.9 ± 0.6 µM.

Q: With `N=C(N)c1ccc(OCCCCCOc2ccc(C(=N)N)cc2)cc1` [Pentamidine, reference compound] as the compound, how does the CC50 at 72 h read?
A: Its CC50 at 72 h is 8.5 ± 1.25 µM.

Tested on: peritoneal macrophages of Swiss mice
Experiment: Macrophage toxicity test (resazurin)
Format: cell-based
Details: macrophages
Experimental: as §1

Q: With `O=C1C2=C(C(=O)c3ccccc31)[C@H]1COc3ccc(Cl)cc3[C@H]1O2` [LQB 236 (2c)] as the compound, how does the “increased cytotoxicity when compared to 2b” value read?
A: Its value is 2.6 times.

Tested on: L. amazonensis promastigotes
Experiment: Antipromastigote test, L. amazonensis
Format: cell-based, Leishmania amazonensis
Details: Leishmania amazonensis; 72 h, resazurin, Mean ± SEM; read-out: L. amazonensis Promastigote IC50
Experimental: New cultures of promastigotes were obtained from infected Balb/C mice. […] A stock solution of the compounds was prepared at 50 mM in dimethylsulfoxide (Sigma Aldrich). The maximum solvent concentration used in the assays was 0.4% in a final volume per well of 200 μL. The cultures were initiated with 1.0 × 10^6 cells/ml and maintained at 26 °C for 72 h. Inhibition of parasitic growth was determined by cell viability indicator, resazurin [23], with excitation λ = 560 nm and emission λ = 590 nm or the number of parasites was then counted in a Neubauer chamber (experiments with L. braziliensis).

Q: With `O=C1C2=C(C(=O)c3ccccc31)[C@H]1COc3ccc(Cl)cc3[C@H]1O2` [LQB 236 (2c)] as the compound, how does the IC50 read?
A: Its IC50 is 1150 ± 180 nM.

Q: With `N=C(N)c1ccc(OCCCCCOc2ccc(C(=N)N)cc2)cc1` [Pentamidine, reference compound] as the compound, how does the IC50 read?
A: Its IC50 is 4800 ± 90 nM.

Tested on: L. braziliensis promastigotes
Experiment: Antipromastigote test, L. braziliensis
Format: cell-based
Details: Leishmania braziliensis; 72 h, parasites counted in Neubauer chamber, Mean ± SEM; read-out: L. braziliensis Promastigote IC50
Experimental: L. braziliensis (MCAN/BR/98/R619) was routinely isolated from hamster lesions and maintained as promastigotes in Schneider’s insect medium containing 20% HIFCS and 100 μg/ml gentamicin (Schering-Plough). New cultures of promastigotes were obtained from an infected hamster.
(§2) Leishmania promastigotes of three species were incubated in 96-well plates (Nunc, Roskilde, Denmark) under the conditions described above in either the absence or presence of different concentrations of pterocarpanquinones 2a-f (0-100 μM). A stock solution of the compounds was prepared at 50 mM in dimethylsulfoxide (Sigma Aldrich). The maximum solvent concentration used in the assays was 0.4% in a final volume per well of 200 μL. The cultures were initiated with 1.0 × 10^6 cells/ml and maintained at 26 °C for 72 h. Inhibition of parasitic growth was determined by cell viability indicator, resazurin [23], with excitation λ = 560 nm and emission λ = 590 nm or the number of parasites was then counted in a Neubauer chamber (experiments with L. braziliensis). The 50% inhibitory concentration (IC50) was determined by nonlinear regression analysis in the software GraphPad Prism 5.

Q: With `O=C1C2=C(C(=O)c3ccccc31)[C@H]1COc3ccc(Cl)cc3[C@H]1O2` [LQB 236 (2c)] as the compound, how does the IC50 read?
A: Its IC50 is 17.9 ± 1.12 µM.

Q: For `N=C(N)c1ccc(OCCCCCOc2ccc(C(=N)N)cc2)cc1` [Pentamidine, reference compound], which IC50 is on record?
A: Its IC50 is 13 ± 0.04 µM.

Tested on: L. infantum promastigotes
Experiment: Antipromastigote test, L. infantum
Format: cell-based, Leishmania infantum
Details: Leishmania infantum; 72 h, resazurin, Mean ± SEM; read-out: L. infantum Promastigote IC50
Experimental: Leishmania infantum (MHOM/MA67ITMAP263) parasites were isolated from female BALB/c mice infected and cultured at 26 °C in Schneider’s insect medium supplemented with 20% HIFCS, streptomycin at 100 μg/ml and penicillin at 100 U/ml. New cultures of promastigotes were obtained from infected Balb/C mice.
as §2

Q: Which IC50 does the source give for `O=C1C2=C(C(=O)c3ccccc31)[C@H]1COc3ccc(Cl)cc3[C@H]1O2` [LQB 236 (2c)] here?
A: The IC50 was 1.8 ± 0.3 µM.

Q: With `N=C(N)c1ccc(OCCCCCOc2ccc(C(=N)N)cc2)cc1` [Pentamidine, reference compound] as the compound, how does the IC50 read?
A: The IC50 was 5.7 ± 0.12 µM.

Tested on: intracellular amastigotes of L. amazonensis
Experiment: Antiamastigote test, L. amazonensis in mouse peritoneal macrophages
Format: cell-based, Leishmania amazonensis
Details: CC50 in Macrophages/IC50 in intracellular amastigotes
Experimental: (§3) For the test against intracellular amastigotes of L. amazonensis and L. infantum, resident peritoneal macrophages (swiss mouse) were plated in RPMI (Sigma-Aldrich) at 2 × 10^6/mL (0.4 mL/well) in Lab-Tek eight-chamber slides (Nunc, Roskilde, Denmark) and incubated at 37 °C in 5% CO2 for 1 h. Stationary-phase L. amazonensis and L. infantum promastigotes were added at respective parasite/macrophage ratios of 3:1 and 5:1 for 4 h. After washing three times, pterocarpanquinones 2a-f at various concentrations were added for 72 h. Next, the slides were stained using an Instant Prov hematological dye system (Newprov, Curitiba, Brazil). The number of amastigotes was determined by counting at least 100 macrophages per sample.
(§4) The results were expressed as an infection index (% infected cells×number of amastigotes/total number of macrophages). The 50% inhibitory concentration (IC50) was determined by nonlinear regression analysis in the software GraphPad Prism 5.

Q: With `O=C1C2=C(C(=O)c3ccccc31)[C@H]1COc3ccc(Cl)cc3[C@H]1O2` [LQB 236 (2c)] as the compound, how does the “L. amazonensis SI (Selective Index)” value read?
A: Its value is 73.16.

Q: With `N=C(N)c1ccc(OCCCCCOc2ccc(C(=N)N)cc2)cc1` [Pentamidine, reference compound] as the compound, how does the “L. amazonensis SI (Selective Index)” value read?
A: The value was 4.47.

Same assay, conditions: Leishmania amazonensis, Peritoneal macrophage; intracellular amastigotes in mouse peritoneal macrophages, 72 h, infection index, Mean ± SEM; read-out: L. amazonensis Amastigote IC50

Q: With `O=C1C2=C(C(=O)c3ccccc31)[C@H]1COc3ccc(Cl)cc3[C@H]1O2` [LQB 236 (2c)] as the compound, how does the IC50 read?
A: Its IC50 is 600 ± 130 nM.

Q: With `N=C(N)c1ccc(OCCCCCOc2ccc(C(=N)N)cc2)cc1` [Pentamidine, reference compound] as the compound, how does the IC50 read?
A: Its IC50 is 1900 ± 100 nM.

Tested on: intracellular amastigotes of L. braziliensis
Experiment: Antiamastigote test, L. braziliensis in golden hamster macrophages
Format: cell-based
Details: CC50 in Macrophages/IC50 in intracellular amastigotes
Experimental: Macrophages of golden hamsters were used in assays against intracellular amastigotes of L. braziliensis due to the natural resistance of mice. Resident macrophages were obtained from the peritoneal cells of golden hamsters after a peritoneal injection of 10 mL of Dulbecco’s Modified Eagle’s medium (DMEM) (Sigma-Aldrich). The peritoneal macrophages were plated onto glass coverslips placed within the wells of a 24-well culture plate and incubated at 37 °C in 5% CO2 for 1 h. After removing the nonadherent cells, the monolayers were infected with stationary-phase L. braziliensis promastigotes at a 5:1 parasite/macrophage ratio for 4 h. The infected macrophages were washed and incubated with several pterocarpanquinone concentrations (0-25 μM) for 72 h. The monolayers were then stained with Giemsa, and at least 100 infected macrophages per sample were counted under optical microscopy.
as §4

Q: Which “L. braziliensis SI (Selective Index)” value does the source give for `O=C1C2=C(C(=O)c3ccccc31)[C@H]1COc3ccc(Cl)cc3[C@H]1O2` [LQB 236 (2c)] here?
A: Its value is 5.26.

Q: With `N=C(N)c1ccc(OCCCCCOc2ccc(C(=N)N)cc2)cc1` [Pentamidine, reference compound] as the compound, how does the “L. braziliensis SI (Selective Index)” value read?
A: Its value is 1.1.

Same assay, conditions: Leishmania braziliensis, Peritoneal macrophage; intracellular amastigotes in golden hamster peritoneal macrophages, 72 h, infection index, Mean ± SEM; read-out: L. braziliensis Amastigote IC50

Q: With `O=C1C2=C(C(=O)c3ccccc31)[C@H]1COc3ccc(Cl)cc3[C@H]1O2` [LQB 236 (2c)] as the compound, how does the IC50 read?
A: Its IC50 is 8.34 ± 1.47 µM.

Q: With `N=C(N)c1ccc(OCCCCCOc2ccc(C(=N)N)cc2)cc1` [Pentamidine, reference compound] as the compound, how does the IC50 read?
A: Its IC50 is 7.7 ± 2.4 µM.

Tested on: intracellular amastigotes of L. infantum
Experiment: Antiamastigote test, L. infantum in mouse peritoneal macrophages
Format: cell-based, Leishmania infantum
Details: CC50 in Macrophages/IC50 in intracellular amastigotes
Experimental: as §3, §4

Q: Which “L. infantum SI (Selective Index)” value does the source give for `N=C(N)c1ccc(OCCCCCOc2ccc(C(=N)N)cc2)cc1` [Pentamidine, reference compound] here?
A: Its value is 21.25.

Same assay, conditions: Leishmania infantum, Peritoneal macrophage; intracellular amastigotes in mouse peritoneal macrophages, 72 h, infection index, Mean ± SEM; read-out: L. infantum Amastigote IC50

Q: For `O=C1C2=C(C(=O)c3ccccc31)[C@H]1COc3ccc(Cl)cc3[C@H]1O2` [LQB 236 (2c)], which IC50 is on record?
A: Its IC50 is greater than 25000 nM.

Q: With `N=C(N)c1ccc(OCCCCCOc2ccc(C(=N)N)cc2)cc1` [Pentamidine, reference compound] as the compound, how does the IC50 read?
A: Its IC50 is 400 ± 200 nM.

Tested on: promastigotes of L. infantum
Experiment: Measurement of reactive oxygen species (H2DCFDA)
Format: cell-based, Leishmania infantum
Details: 1.25–5.0 μM, 4 h
Experimental: Intracellular ROS levels were measured in treated and untreated cells as described previously. Briefly, 1 × 10^7 promastigotes/mL of L. infantum were incubated in Schneider’s insect medium supplemented with 20% HIFCS at 26 °C with concentrations of pterocarpanquinones 2a-f ranging from 0 to 5 μM in the presence of 20 μM H2DCFDA (Molecular Probes, Eugene, OR, USA). The fluorescence was monitored at 1 h intervals for 4 h using 485 and 530 nm as excitation and emission wavelengths, respectively, using the spectrofluorometer Spectra Max Gemini XPS (Molecular Devices, Silicon Valley, CA, USA). Antimycin A 10 μM was used as positive control.

Q: Which “ROS production, dependence on concentration” value does the source give for `O=C1C2=C(C(=O)c3ccccc31)[C@H]1COc3ccc(Cl)cc3[C@H]1O2` [LQB 236 (2c)] here?
A: Its value is “only increased ROS production when the parasite was incubated with the highest concentration of 5 μM”.

Same assay, conditions: 1.25–5.0 μM, compared with control, listed as 2c

Q: For `O=C1C2=C(C(=O)c3ccccc31)[C@H]1COc3ccc(Cl)cc3[C@H]1O2` [LQB 236 (2c)], which “Early ROS production after 4 h of treatment” value is on record?
A: The value was “induction of increased ROS production”.

Tested on: promastigotes of L. infantum
Experiment: Mitochondrial membrane potential (ΔΨm) test (rhodamine 123, flow cytometry)
Format: cell-based, Leishmania infantum
Details: 1.25 μM, 4 h, Rh123, IV = (MT − MC)/MC, negative = depolarization, mean ± SD
Experimental: To determine the effect of pterocarpanquinones 2a-f on the ΔΨm, promastigotes of L. infantum (5 × 10^6 cells/mL) were incubated in the presence of 0–5 μM of derivatives at 26 °C. After 4 h, the parasites were incubated for 15 min with 10 μg/mL rhodamine 123 (Rh123) (Sigma-Aldrich). Data acquisition of 10,000 events and analysis were performed using the flow cytometer FACSCalibur (Becton-Dickinson, Rutherford, NJ, USA). Alteration in ΔΨm was quantified using an index of variation (IV) obtained by the eq. IV = (MT − MC)/MC [24], where MT is the median of the fluorescence of Rh123 for treated parasites and MC is the median of the fluorescence of the control parasites. Negative IV values correspond to depolarization of the mitochondrial membrane. The FCCP (Carbonyl cyanide-p-Trifluoromethoxyphenylhydrazone) 20 μM was used as positive control.

Q: With `O=C1C2=C(C(=O)c3ccccc31)[C@H]1COc3ccc(Cl)cc3[C@H]1O2` [LQB 236 (2c)] as the compound, how does the “Δѱm index of variation (IV)” value read?
A: The value was −0.360 ± 0.16.

Same assay, conditions: 2.5 μM, 4 h, Rh123, IV = (MT − MC)/MC, negative = depolarization, mean ± SD

Q: Which “Δѱm index of variation (IV)” value does the source give for `O=C1C2=C(C(=O)c3ccccc31)[C@H]1COc3ccc(Cl)cc3[C@H]1O2` [LQB 236 (2c)] here?
A: Its value is −0.258 ± 0.17.
